According to US9708368B2, “Linear peptide antibiotics” (priority 2012, dated 2017):
pIC50: −log10 of the molar value. ≈ marks a conversion by molar mass, not a printed value. Square brackets hold non-standard residues; d marks the D form. Peptide text beside a SMILES is read from it. * marks the point of attachment. ξ: configuration not given here. boroAla((+)-pinanediol) = C[C@H](N*)B1O[C@@H]2C[C@@H]3C[C@@H](C3(C)C)[C@]2(C)O1; Biphenylcarbonyl(4'-Bu) = CCCCc1ccc(-c2ccc(C(=O)*)cc2)cc1; X1 = C[C@H](N*)B1OC2C[C@@H]3C[C@@H](C3(C)C)[C@]2(C)O1; NMeY = CN[C@@H](Cc1ccc(O)cc1)C(=O)O; Lauroyl = CCCCCCCCCCCC(=O)*; Decanoyl = CCCCCCCCCC(=O)*; boroAla = C[C@H](N*)B(O)O; Dab = NCC[C@H](N)C(=O)O; Dap = NC[C@H](N)C(=O)O; ξOrn = NCCCC(N)C(=O)O; βAla = NCCC(=O)O

Legend:
[1] = system: Escherichia coli strain MC4100 IMP-4213, which harbors an LptD mutation; conditions: Method B; E. coli MC4100 IMP-4213 (LptD mutation); 35° C., 22 hours
Outline: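 Two-fold serial dilutions of compound inoculated at final OD600 0.0005, incubated static at 35 °C for 22 h, and growth read visually.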

[2] = system: methicillin resistant Staphylococcus aureus (MRSA) strain USA300 (NRS384); conditions: Method B, 35° C., 22 hours
S. aureus SPase = S. aureus SPase (Staphylococcus aureus, UniProt P0A070); experiment: biochemical
Chain of S. aureus SPase (P0A070 whole entry): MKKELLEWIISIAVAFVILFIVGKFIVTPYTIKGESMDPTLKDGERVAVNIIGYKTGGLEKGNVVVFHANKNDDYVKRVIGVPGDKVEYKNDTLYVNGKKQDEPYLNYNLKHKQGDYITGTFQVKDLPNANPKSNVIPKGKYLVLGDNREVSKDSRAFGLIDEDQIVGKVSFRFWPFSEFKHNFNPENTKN
Description: Full length His-tagged S. aureus SPase protein was expressed similarly from E. coli BL21(DE3) containing the plasmid pCDF1-SaSpsB and purified similarly to the E. coli protein with the following exceptions. […] Protein purity was judged to exceed 95% by visual inspection of SDS-PAGE followed by Comassie staining. All protein concentrations were determined by BCA assay.
Reactions were initiated by the addition of substrate to a final concentration of 20 μM. Reaction progress was monitored by measuring the increase in fluorescence signal (excitation at 314 nm, emission at 416 nm) using a SpectraMax M2 fluorescence microplate reader. […] Three-folder serial dilutions of test compounds, starting at 10 μM, were prepared in enzyme mix solution and incubated at room temperature for 10 minutes. Following this incubation, fluorogenic substrate was added to a final concentration of 20 μM and the increase in fluorescence, corresponding to substrate cleavage, was monitored continuously at room temperature for 1 hour. Initial reaction rates were calculated based on the rate of increase in fluorescence during the reaction. Reaction rates were plotted as a function of compound concentration, and IC50 values are determined nonlinear regression analysis (SoftMaxPro 5.4, Molecular Devices™) of the sigmoidal dose-response curve.

E. coli SPase = E. coli SPase (Escherichia coli, UniProt P00803); experiment: Biochemical SPase activity assay (fluorogenic peptide substrate), E. coli enzyme
Chain of E. coli SPase (P00803 whole entry): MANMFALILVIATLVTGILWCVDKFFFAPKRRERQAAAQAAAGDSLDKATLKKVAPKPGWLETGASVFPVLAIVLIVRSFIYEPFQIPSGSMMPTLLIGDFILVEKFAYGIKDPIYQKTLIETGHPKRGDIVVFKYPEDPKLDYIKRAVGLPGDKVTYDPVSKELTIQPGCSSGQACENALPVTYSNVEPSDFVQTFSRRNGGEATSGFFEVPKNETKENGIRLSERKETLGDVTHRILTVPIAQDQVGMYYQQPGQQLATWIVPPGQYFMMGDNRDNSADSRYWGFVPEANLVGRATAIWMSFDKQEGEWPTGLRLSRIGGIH

Row | Compound | MIC (μg/mL) E. coli [1] [µg/mL] | MIC (μg/mL) S. aureus [2] [µg/mL] | pIC50 (S. aureus SPase) | pIC50 (E. coli SPase)
1 | CCCCCCCCCCCC(=O)NCCC(=O)N[C@@H](CCCCN)C(=O)N[C@H](C(=O)N[C@@H](C)C(=O)N[C@@H](CC(N)=O)C(=O)N[C@@H](C)B1OC2C[C@@H]3C[C@@H](C3(C)C)[C@]2(C)O1)[C@@H](C)O (stereo partly drawn) [Compound 202] ({Lauroyl-βAla}-KTAN-X1) | 23 (≈ 25.8 µM) | 1.1 (≈ 1.23 µM) | 8.46 | 8.15
2 | CCCCCCCCCC(=O)N[C@@H](CN)C(=O)N[C@H](C(=O)N[C@@H](C)C(=O)N[C@@H](CCCCN)C(=O)N[C@@H](C)B1OC2C[C@@H]3C[C@@H](C3(C)C)[C@]2(C)O1)[C@@H](C)O (stereo partly drawn) [Compound 169] (Decanoyl-[Dap]TAK-X1) | 11 (≈ 14.4 µM) | 3.2 (≈ 4.19 µM) | 7.06 | 8.41
3 | CCCCc1ccc(-c2ccc(C(=O)NCCC(=O)N[C@@H](CCCCN)C(=O)NC(CCCN)C(=O)N[C@@H](C)C(=O)N[C@@H](CC(C)C)C(=O)N[C@@H](C)B3OC4C[C@@H]5C[C@@H](C5(C)C)[C@]4(C)O3)cc2)cc1 (stereo partly drawn) [Compound 217] ({Biphenylcarbonyl(4'-Bu)-βAla}-K[ξOrn]AL-X1) | 1.6 (≈ 1.67 µM) | 0.35 (≈ 0.366 µM) | 7.85 | 7.82
4 | CCCCc1ccc(-c2cnc(C(=O)N[C@@H](CCN)C(=O)N[C@H](C(=O)N[C@@H](C)C(=O)N[C@@H](CCCCN)C(=O)N[C@@H](C)B3OC4C[C@@H]5C[C@@H](C5(C)C)[C@]4(C)O3)[C@@H](C)O)nc2)cc1 (stereo partly drawn) [Compound 242] | 11 (≈ 12.8 µM) | 1.4 (≈ 1.62 µM) | 7.27 | 7.68
5 | CCCCc1ccc(-c2ccc(CC(=O)N[C@@H](CCN)C(=O)N[C@H](C(=O)N[C@@H](C)C(=O)N[C@@H](CCCCN)C(=O)N[C@@H](C)B3OC4C[C@@H]5C[C@@H](C5(C)C)[C@]4(C)O3)[C@@H](C)O)cc2)cc1 (stereo partly drawn) [Compound 243] | 2 (≈ 2.29 µM) | 0.5 (≈ 0.572 µM) | 7.10 | 8.00
6 | CCCCc1ccc(-c2ccc(C(=O)N[C@@H](CCCCN)C(=O)N(C)[C@@H](Cc3ccc(O)cc3)C(=O)N[C@@H](C)C(=O)N[C@@H](CCCCN)C(=O)N[C@@H](C)B(O)O)cc2)cc1 [Compound 157] ({Biphenylcarbonyl(4'-Bu)}-K[NMeY]AK-boroAla) | 4 (≈ 4.82 µM) | 2 (≈ 2.41 µM) | 6.00 | 6.89
7 | CCCCc1ccc(-c2ccc(C(=O)NCCC(=O)N[C@@H](CCCCN)C(=O)N[C@H](C(=O)N[C@@H](C)C(=O)N[C@@H](CC(N)=O)C(=O)N[C@@H](C)B(O)O)[C@@H](C)O)cc2)cc1 [Compound 204] ({Biphenylcarbonyl(4'-Bu)-βAla}-KTAN-boroAla) | 4.6 (≈ 5.67 µM) | 0.45 (≈ 0.555 µM) | 7.89 | 7.48
8 | CCCCc1ccc(-c2ccc(C(=O)N[C@@H](CCN)C(=O)N[C@@H](CCN)C(=O)N[C@@H](C)C(=O)N[C@@H](CC(C)C)C(=O)N[C@@H](C)B3O[C@@H]4C[C@@H]5C[C@@H](C5(C)C)[C@]4(C)O3)cc2)cc1 [Compound 171] ({Biphenylcarbonyl(4'-Bu)}-[Dab][Dab]AL-{boroAla((+)-pinanediol)}) | 0.25 (≈ 0.296 µM) | 0.71 (≈ 0.841 µM) | 6.28 | 7.57
9 | CCCCCCCCCC(=O)NCCC(=O)N[C@@H](CCCCN)C(=O)N[C@H](C(=O)N[C@@H](C)C(=O)N[C@@H](CC(N)=O)C(=O)N[C@@H](C)B1OC2C[C@@H]3C[C@@H](C3(C)C)[C@]2(C)O1)[C@@H](C)O (stereo partly drawn) [Compound 199] ({Decanoyl-βAla}-KTAN-X1) | >64 | 7 (≈ 8.11 µM) | 8.85 | 8.35
